Source: the Biogen ADME set (Fang et al. 2023)
In brackets after ≈: the same amount, converted by molar mass.

Settings: for aqueous solubility: pH 6.8

SMILES	intrinsic clearance, human liver microsomes [mL/min/kg]	intrinsic clearance, rat liver microsomes [mL/min/kg]	MDR1-MDCK efflux ratio	aqueous solubility [µg/mL]	fraction unbound, human plasma	fraction unbound, rat plasma
Cc1ccccc1CS(=O)(=O)c1ncc(Cl)c(C(=O)Nc2sc3c(c2C#N)CCCC3)n1	568	2120	–	–	–	–
Cc1cc(C)n2ncc(C(=O)NC3CCCCC3)c2n1	55.8	166	0.702	4.94 (≈ 18.1 µM)	–	–
CC(=O)Nc1ccc(C(=O)Nc2cc(-c3cccs3)ccc2N)cc1	9.52	65.2	–	–	–	–
CO[C@H]1CC[C@@H](C(=O)c2ccc3nc4c(cc3c2)CCCO4)CC1	29.4	552	0.805	44.5 (≈ 137 µM)	–	–
N=C(NC(=O)OCc1ccccc1)c1ccc(CN)cc1	–	–	–	30.6 (≈ 108 µM)	–	–
C#CCOc1ccc(OC)cc1C(N)=O	13.8	73.3	0.717	–	–	–
COc1ccc(Nc2nc(Cl)cc(Cl)n2)cc1	188	170	–	–	–	–
Cc1nc2ccc(C(=O)NCCCN3Cc4ccccc4C3)cc2[nH]1	–	–	–	52.4 (≈ 157 µM)	–	–
CC1CN(C(=O)c2cccnc2N2CCOCC2)CC(c2ccccc2)O1 (configuration not stated)	35.9	554	5.22	–	0.374	0.359
Cc1sc2nc(CN3CCC(C)CC3)nc(N3CCN(c4cnccn4)CC3)c2c1C	228	1980	9.31	42 (≈ 96 µM)	–	–
Cc1ccccc1NC(=O)CN1C(=O)CCC1=O	≤ 4.74	≤ 10.7	–	36.3 (≈ 147 µM)	–	–
Cn1cc(NC(=O)c2cn(Cc3ccccc3)nn2)cn1	≤ 4.74	≤ 10.7	1.03	23.4 (≈ 82.8 µM)	–	–
C=CCc1ccccc1OCC(O)CNC(C)C (configuration not stated)	–	–	–	–	–	0.313
CN(C)C1(CNC(=O)N2CCCC(C)(C)CC2)CCOCC1	8.43	120	16.5	56.9 (≈ 183 µM)	–	–
COc1ccccc1-c1csc(-n2ncc(C#N)c2N)n1	–	–	–	0.13 (≈ 0.437 µM)	–	–
Cc1nnc(-c2ccccc2-c2c[nH]nc2C)s1	–	–	–	30.9 (≈ 121 µM)	–	–
Cc1ccc(-c2ccc(N(C)CCO)nn2)c(-n2cccn2)c1	≤ 4.74	79.8	29.3	–	–	–
CCN(CC)CCCNc1c2c(nc3ccccc13)CCC2	–	–	–	25.4 (≈ 85.6 µM)	–	–
Cc1ccc(-c2ccc(NC(=O)c3ncoc3-c3ccccc3)cc2)o1	–	–	0.447	0.37 (≈ 1.07 µM)	–	–
CCOc1cccc(CNCCc2c[nH]c3ccccc23)c1	90.8	1330	0.628	73 (≈ 248 µM)	–	–
Cc1cc(CO)nc(N2CCCCC2)n1	26.7	113	–	–	–	–

SMILES	intrinsic clearance, human liver microsomes [mL/min/kg]	intrinsic clearance, rat liver microsomes [mL/min/kg]	MDR1-MDCK efflux ratio	aqueous solubility [µg/mL]	fraction unbound, human plasma	fraction unbound, rat plasma
Cc1ccc(S(=O)(=O)Nc2ccc3c(c2)CCCN3C(=O)c2cccs2)cc1C	364	2380	–	–	–	–
CN(CC1(CO)CCCC1)C(=O)CCN1CCCCC1=O	≤ 4.74	113	21.2	–	–	–
CS(=O)(=O)NC1CCCN(c2nc3ccccc3o2)C1 (configuration not stated)	≤ 4.74	42.3	4.21	–	–	–
N#CCCn1nc(C(F)(F)F)cc1O	–	–	–	23.1 (≈ 113 µM)	–	–
CN(C/C=C/C(=O)N1CCC[C@@H](n2nc(-c3ccc(Oc4ccccc4)cc3)c3c(N)ncnc32)C1)CCCCNC(=O)CCCC(=O)NCCCOCCOCCOCCCNC(=O)CCCC[C@@H]1SC[C@@H]2NC(=O)N[C@@H]21	127	87.3	–	–	–	–
O=[N+]([O-])c1ccc(S(=O)(=O)Nc2cccc(-c3nc4ccccc4[nH]3)c2)cc1	21.1	993	–	–	–	–
CN(C)c1ncc(CN2CCC(Cc3ccc(F)cc3)CC2)s1	43.1	2570	–	–	–	–
O=C(CCc1ccc2c(c1)OCO2)Nc1nc2c(s1)CCC2	97.4	593	0.236	11.6 (≈ 36.5 µM)	–	–
CN1CCCN(C(=O)NCCOc2ccc3c(c2)OCO3)CC1	≤ 4.74	20.3	19.9	70 (≈ 218 µM)	–	–
COC(=O)C1=NOC2(CCN(CCCCCF)CC2)C1	199	713	0.463	–	–	–
Cc1nc2ncc3c(n2n1)CC(C)(C)CC3=O	≤ 4.74	≤ 10.7	0.814	–	–	–
O=C(NCCCNC(=O)c1cc2ccccc2[nH]1)c1ccc2c(c1)OCCO2	19.3	283	6.74	40.5 (≈ 107 µM)	–	–
CC(C)c1nc(NCc2cccnc2)n(C)n1	≤ 4.74	≤ 10.7	3.72	38.2 (≈ 165 µM)	–	–
COCc1cc(-c2nc(CCc3ccccc3)n[nH]2)ccc1OC	70.4	1100	2.29	24.9 (≈ 77.1 µM)	–	–
CC(C)NC(=O)COc1cccc(-c2nc(Nc3ccc4[nH]ncc4c3)c3ccccc3n2)c1	42.7	1560	20	–	0.00041	0.00313
Nc1nc(-c2ccccc2)c(C(=O)Nc2ccc(Cl)c(Cl)c2)s1	–	–	0.643	0.5 (≈ 1.37 µM)	–	–
CCCn1cc(C(=O)N2CCC(c3n[nH]cc3C(=O)N3CCOCC3)CC2)cn1	≤ 4.74	11.4	15.3	54.1 (≈ 135 µM)	–	–
Cn1ncc2c1CCc1sc(NC(=O)c3cccnc3)nc1-2	16.6	89.2	1.58	10.8 (≈ 34.7 µM)	–	–
Cn1c(=O)cc(N2CCC[C@@H](N)C2)n(Cc2cc(F)ccc2C#N)c1=O	≤ 4.74	≤ 10.7	–	–	–	–
O=S(=O)(NCCC(c1ccccc1)c1ccccc1)c1ccc(Cl)cc1	396	9320	–	–	–	–
CCCc1n[nH]c2c1C(C1CC=CCC1)C(C#N)=C(N)O2 (configuration not stated)	–	–	–	3.07 (≈ 10.8 µM)	–	–

SMILES	intrinsic clearance, human liver microsomes [mL/min/kg]	intrinsic clearance, rat liver microsomes [mL/min/kg]	MDR1-MDCK efflux ratio	aqueous solubility [µg/mL]	fraction unbound, human plasma	fraction unbound, rat plasma
NC(=O)CN1CCC(COc2ccccc2C(F)(F)F)CC1	12.9	1110	0.524	–	–	–
COc1cc(-c2cn(C3CCc4c(F)cccc4N(CC(F)(F)F)C3=O)nn2)ccc1-n1cnc(C)c1 (configuration not stated)	26.1	49.2	–	–	–	–
Cc1cc2c(=O)n3c(nc2s1)CCNCC3	≤ 4.74	67.5	–	–	–	–
Cc1noc(CC2CCN(Cc3cccnc3)CC2)n1	5.69	48.9	–	–	–	–
CCN(Cc1nc(C)no1)C(=O)c1cc(C)c(C)n(C)c1=O	≤ 4.74	≤ 10.7	82.6	–	–	–
CN1CCC[C@H]1C(=O)N[C@@H](CO)Cc1ccccc1	7.16	315	2.77	–	–	–
O=C(O)c1cc(Cl)cc2cccnc12	≤ 4.74	≤ 10.7	–	26.9 (≈ 129 µM)	–	–
CN1CCN(c2oc(-c3cccc4ccccc34)nc2C#N)CC1	94.3	1600	0.363	–	–	–
CCc1ccc(CNc2nncs2)o1	7.77	46.9	0.666	–	–	–
COc1ccc(OC)c(Cn2cnc3cn(C)nc3c2=O)c1	≤ 4.74	50.8	2.56	–	–	–
CCOc1ccnc(NCCCc2nc3cc(F)ccc3[nH]2)n1	237	3280	3.15	–	–	–
Cc1nn(C)c2nc(C(C)C)cc(C(=O)O)c12	≤ 4.74	≤ 10.7	–	32.5 (≈ 139 µM)	–	–
O=C(Nc1ccn(CC(F)F)n1)NC1CCN(C2CCCC2)CC1	≤ 4.74	≤ 10.7	34.7	–	–	–
Cn1cc(-c2cccc3c(C(N)=O)cccc23)cn1	≤ 4.74	42.6	1.17	–	–	–
COc1cccc(N(C)CCC(=O)N2CCC(c3ccc(-c4ccc(N)nc4)cn3)CC2)c1	821	1770	6.73	47 (≈ 106 µM)	–	–
CC(=O)Nc1ccccc1OCCOc1ccc(Cl)cc1	95.8	665	0.373	–	–	–
Nc1cnn(CC(=O)Nc2ccc(F)cc2)c1	16.1	62.4	–	54 (≈ 231 µM)	–	–
COc1ccc(CN(C)C(=O)Nc2ccccc2)cc1F	18.2	644	0.669	45.9 (≈ 159 µM)	–	–
Cc1nc(-c2cccnc2)sc1C(=O)Nc1ccccc1-c1cn2c(CN3CCOCC3)csc2n1	–	–	3.28	0.65 (≈ 1.26 µM)	–	–
O[C@@H]1CO[C@H]2C[C@@H]1Nc1c(Cc3ccccc3)cccc12	33.5	354	0.47	30 (≈ 106 µM)	–	–
Fc1ccc(CCNc2ncnc3ncccc23)cc1	13.3	80.5	2.35	–	–	–
